In patent publication US5959130A, “Castor based benzoate esters” (Finetex, Inc., priority 1997, dated 1999):

How the values were obtained:
[1] = sunscreen solubility: PARSOL 1789, Table IV B; format: physicochemical
From the text: (§1) These two sunscreens are difficult to dissolve and keep in solution for use in sunscreen formulations for optimal SPF (sun-protection factors). Higher solvency for a sunscreen ingredient is desirable as it allows higher concentrations of the sunscreen active ingredient in a formulation. This advantageously raises the SPF ratings for the formulation. The liquid organic sunscreens that are commonly used are octyl-methoxy cinnamate (OMC) and octyl salicylate (OS).
(§2) Solubility/Solvency Tables IVA and IVB show the solubility and concentrations of the sunscreen ingredient in the novel esters of the invention compared to their precursor raw materials (non-benzoate esters).

[2] = organoleptic evaluation of tactile characteristics on the forearm, Table VII; format: in vivo, individuals; conditions: rating, 1 = Worst 5 = Best
Method: The tactile characteristics of the novel benzoate esters of the invention were determined by applying the appropriate material, neat or as a dilution with another emollient ester, lanolin or […]. The properties were evaluated organoleptically after application to the interior surface of the forearm.

[3] = in specific ratios
From the text: The aforedescribed benzoate esters have unique properties that make them particularly suited for use as emollient carriers for cosmetic ingredients. […] Parsol® is a registered trademark of Givaudan Corp. of Clifon, N.J.

[4] = Hagman readings (particle size), Red No. 21 dispersion, Table VI A; format: physicochemical; conditions: Red No. 21 35%
Method: (§3) The novel benzoate esters of the invention were tested for pigment and dye dispersing efficacy. Color pastes were prepared by dispersing dry pigment into the oil phase while hand stirring and then passing each mixture through a three roll mill six times, collecting a 16 oz. sample after each pass. The samples collected were subjected to particle size measurements.

[5] = physical properties of benzoate esters compared to precursors, Table II; format: physicochemical; conditions: for S.G. (specific gravity): 25° C.; for VISCOSITY: Brookfield Viscometer, Spindle # 1, 10 rpm
From the text: Absence of odor is an important factor in consumer acceptance of cosmetic and toiletry products.

[6] = Hagman readings (particle size), Red No. 6 Barium Lake dispersion, Table VI A; format: physicochemical; conditions: Red No. 6 Barium Lake 35%
Method: as §3

[7] = sunscreen solubility: Benzophenone-3, Table IV A; format: physicochemical
From the text: as §1, §2

[8] = viscosity readings of Red No. 21 dispersions, Table VI B; format: physicochemical; conditions: Brookfield LVT-D @ 12 RPM, Red No. 21 35%
[9] = Hagman readings (particle size), titanium dioxide dispersion, Table VI A; format: physicochemical; conditions: TiO2 50%
Method: as §3

[10] = viscosity readings of titanium dioxide dispersions, Table VI B; format: physicochemical; conditions: for Viscosity reading of dispersion: Brookfield LVT-D @ 12 RPM, TiO2 50%
[11] = refractive index of benzoate esters compared to precursors, Table V; format: physicochemical; conditions: 25° C.
[12] = 23° C., 10 gms sunscreen in 100 gms mixture
[13] = 30° C., 10 gms sunscreen in 100 gms mixture
[14] = 30° C., 15 gms sunscreen in 100 gms mixture

For `CCCCCCC(CC=CCCCCCCCC(=O)OCC(COC(=O)CCCCCCCC=CCC(CCCCCC)OC(=O)c1ccccc1)OC(=O)CCCCCCCC=CCC(CCCCCC)OC(=O)c1ccccc1)OC(=O)c1ccccc1` (stereo not shown) [BCO, Benzoic acid ester of glyceryl tri-ricinoleate], the “Sunscreen solubility (Parsol 1789)” value [1, 12] was “+”, the “Sunscreen solubility (Parsol 1789)” value ([1]; 30° C., 5 gms sunscreen in 100 gms mixture) was “+” and the “Sunscreen solubility (Parsol 1789)” value [1, 13] was “+”. For the same compound, the “Sunscreen solubility (Parsol 1789)” value [1, 14] was “+”, the GREASINESS/OILINESS [2] was 4 and the “OVERALL TACTILITY” value [2] was 3. The SPREADABILITY [2] was 4, the TACK [2] was 2 and the “miscibility with Parsol 1789” value [3] was “miscible”. The “miscibility with benzophenone-3” value [3] was “miscible”, the “Hagman reading (particle size)” value ([4]; pass 1) was no more than 39 μm and the “Hagman reading (particle size)” value ([4]; pass 2) was no more than 30 μm. For the same compound, the “Hagman reading (particle size)” value ([4]; pass 3) was no more than 26 μm, the “Hagman reading (particle size)” value ([4]; pass 4) was no more than 14 μm and the “Hagman reading (particle size)” value ([4]; pass 5) was no more than 12 μm. For the same compound, the “Hagman reading (particle size)” value ([4]; pass 6) was no more than 10 μm, the “S.G. (specific gravity)” value [5] was 0.982 and the VISCOSITY [5] was 937 cps. The “Hagman reading (particle size)” value ([6]; pass 1) was no more than 49 μm, the “Hagman reading (particle size)” value ([6]; pass 2) was no more than 45 μm and the “Hagman reading (particle size)” value ([6]; pass 3) was no more than 42 μm. For the same compound, the “Hagman reading (particle size)” value ([6]; pass 4) was no more than 40 μm, the “Hagman reading (particle size)” value ([6]; pass 5) was no more than 36 μm and the “Hagman reading (particle size)” value ([6]; pass 6) was no more than 33 μm. For the same compound, the “Sunscreen solubility (Benzophenone-3)” value [7, 12] was “+”, the “Sunscreen solubility (Benzophenone-3)” value ([7]; 23° C., 15 gms sunscreen in 100 gms mixture) was “+” and the “Sunscreen solubility (Benzophenone-3)” value [7, 13] was “+”. For the same compound, the “Sunscreen solubility (Benzophenone-3)” value [7, 14] was “+”, the “Viscosity reading of dispersion” value ([8]; pass 1) was > 15,600 cps and the “Viscosity reading of dispersion” value ([8]; pass 2) was > 15,600 cps. For the same compound, the “Viscosity reading of dispersion” value ([8]; pass 3) was > 15,600 cps, the “Viscosity reading of dispersion” value ([8]; pass 4) was > 15,600 cps and the “Viscosity reading of dispersion” value ([8]; pass 5) was > 15,600 cps. The “Viscosity reading of dispersion” value ([8]; pass 6) was > 15,600 cps, the “Hagman reading (particle size)” value ([9]; pass 1) was no more than 30 μm and the “Hagman reading (particle size)” value ([9]; pass 2) was no more than 26 μm. The “Hagman reading (particle size)” value ([9]; pass 3) was no more than 20 μm, the “Hagman reading (particle size)” value ([9]; pass 4) was no more than 10 μm and the “Hagman reading (particle size)” value ([9]; pass 5) was no more than 10 μm. The “Hagman reading (particle size)” value ([9]; pass 6) was no more than 8 μm, the “viscosity of TiO2 dispersions (in words)” value [10] was “much lower viscosity” and the “Viscosity reading of dispersion” value ([10]; pass 1) was 6552 cps. For the same compound, the “Viscosity reading of dispersion” value ([10]; pass 2) was 7176 cps, the “Viscosity reading of dispersion” value ([10]; pass 3) was 7800 cps and the “Viscosity reading of dispersion” value ([10]; pass 4) was 7332 cps. For the same compound, the “Viscosity reading of dispersion” value ([10]; pass 5) was 7176 cps and the “Viscosity reading of dispersion” value ([10]; pass 6) was 6786 cps.

With `CCCCCCCCCCCCCCCCOC(=O)CCCCCCC/C=C\C[C@H](O)CCCCCC` [CR, Cetyl Ricinoleate, reference compound] the “Sunscreen solubility (Parsol 1789)” value [1, 12] was “+”, the “Sunscreen solubility (Parsol 1789)” value [1, 13] was “+” and the “Sunscreen solubility (Parsol 1789)” value [1, 14] was “+”. For the same compound, the “Hagman reading (particle size)” value ([4]; pass 1) was no more than 39 μm, the “Hagman reading (particle size)” value ([4]; pass 2) was no more than 36 μm and the “Hagman reading (particle size)” value ([4]; pass 3) was no more than 30 μm. For the same compound, the “Hagman reading (particle size)” value ([4]; pass 4) was no more than 26 μm, the “Hagman reading (particle size)” value ([4]; pass 5) was no more than 18 μm and the “Hagman reading (particle size)” value ([4]; pass 6) was no more than 14 μm. The Color [5] was “light yellow”, the “S.G. (specific gravity)” value [5] was 0.874 and the VISCOSITY [5] was 65 cps. The “REFRACTIVE INDEX” value ([5]; Table II) was 1.4580, the “Hagman reading (particle size)” value ([6]; pass 1) was no more than 49 μm and the “Hagman reading (particle size)” value ([6]; pass 2) was no more than 48 μm. The “Hagman reading (particle size)” value ([6]; pass 3) was no more than 40 μm, the “Hagman reading (particle size)” value ([6]; pass 4) was no more than 38 μm and the “Hagman reading (particle size)” value ([6]; pass 5) was no more than 33 μm. The “Hagman reading (particle size)” value ([6]; pass 6) was no more than 30 μm, the “Refractive Index, Typical” value [11] was 1.4580 and the “Sunscreen solubility (Benzophenone-3)” value [7, 12] was “+”. For the same compound, the “Sunscreen solubility (Benzophenone-3)” value [7, 13] was “+”, the “Sunscreen solubility (Benzophenone-3)” value [7, 14] was “+” and the “Viscosity reading of dispersion” value ([8]; pass 1) was “Out of instrument range”. For the same compound, the “Viscosity reading of dispersion” value ([8]; pass 2) was “Out of instrument range”, the “Viscosity reading of dispersion” value ([8]; pass 3) was “Out of instrument range” and the “Viscosity reading of dispersion” value ([8]; pass 4) was “Out of instrument range”. The “Viscosity reading of dispersion” value ([8]; pass 5) was “Out of instrument range”, the “Viscosity reading of dispersion” value ([8]; pass 6) was “Out of instrument range” and the “Hagman reading (particle size)” value ([9]; pass 1) was no more than 93 μm. For the same compound, the “Hagman reading (particle size)” value ([9]; pass 2) was no more than 80 μm, the “Hagman reading (particle size)” value ([9]; pass 3) was no more than 80 μm and the “Hagman reading (particle size)” value ([9]; pass 4) was no more than 76 μm. For the same compound, the “Hagman reading (particle size)” value ([9]; pass 5) was no more than 50 μm, the “Hagman reading (particle size)” value ([9]; pass 6) was no more than 43 μm and the “Viscosity reading of dispersion” value ([10]; pass 1) was “Out of instrument range”. For the same compound, the “Viscosity reading of dispersion” value ([10]; pass 2) was “Out of instrument range”, the “Viscosity reading of dispersion” value ([10]; pass 3) was “Out of instrument range” and the “Viscosity reading of dispersion” value ([10]; pass 4) was “Out of instrument range”. The “Viscosity reading of dispersion” value ([10]; pass 5) was “Out of instrument range” and the “Viscosity reading of dispersion” value ([10]; pass 6) was “Out of instrument range”.
